Laboratory results as given in patent US20260015662A1, “DETECTING ANTIBIOTIC AND/OR CHEMICAL USE IN ANIMALS USING EPIGENETIC MEANS” (Evonik Operations GmbH, priority 2022, published 2026).
Structures can show the parent of a compound that is named as a salt.

Tests used:
[1] = cited from earlier work; for Absorption: absorption level of the antibiotic
[2] = system: IPEC2 cells (swine intestinal cell line IPEC2-J2); assay: Methylated DNA quantification in swine intestinal cell line treated with antibiotics; assay type: cell-based; conditions: for average amount of methylated DNA: Tet 200 mg/L, Amx 100 mg/L, Col 480 mg/L, ± SEM; for size of the reduction in overall DNA methylation (rank among the three antibiotics): within 24 hrs of treatment, compared with antibiotic free control cells
Experimental: An in vitro to investigate the effects of three different antibiotics on the DNA methylation quantity in a swine intestinal cell line.
An immortalised cell line from swine intestines (IPEC2-J2 ACC 701 from DSMZ cell culture) was utilized in the 7th passage. In a 12 well, flat-bottom plate, 1×10^4 cel|s/well were seeded with DPBS D8537 (Sigma-Aldrich) and initially incubated for 4 days. After incubation cells were treated with one of 4 treatments for up to an additional 4 days: • 1) Incubation for 4 days without any antibiotics • 2) Incubation for 1 day with antibiotics followed by incubation for 1-3 days in antibiotic free media • 3) Incubation for 2 days with antibiotics followed by incubation for 1-2 days in antibiotic free media • 4) Incubation for 3 days with antibiotics followed by incubation for 1 day in antibiotic free media
Treatments 2, 3 and 4 were repeated with 3 different antibiotic treatments; tetracycline hydrochloride at 200 mg/L, Amoxicillin at 100 mg/L and Colistin at 480 mg/L. Duplicate cells per treatment were harvested at each time point. Media was removed, cells were washed once with DPBS, and a cell scraper was used to disassociate the cells from the bottom of the well. Cell pellets were then stored at −80° C. until DNA could be isolated using the NuceloSpin® DNA Stool Kit (Macherey and Nagel). Methylation grade of 100ng of isolated DNA was determined using the Imprint® Methylated DNA Quantification Kit (Sigma-Aldrich) which compared samples to a standard curve of known methylated DNA.

[3] = 1 day with antibiotic before washing, harvested Day 1
[4] = 1 day with antibiotic before washing, harvested Day 2
[5] = 1 day with antibiotic before washing, harvested Day 3
[6] = 1 day with antibiotic before washing, harvested Day 4
[7] = 2 days with antibiotic before washing, harvested Day 2
[8] = 2 days with antibiotic before washing, harvested Day 3
[9] = 2 days with antibiotic before washing, harvested Day 4
[10] = 3 days with antibiotic before washing, harvested Day 3
[11] = 3 days with antibiotic before washing, harvested Day 4

Bacitracin Methylene Disalicylate [BMD]
Absorption [1]: Local
Recommended Withdrawal for Broilers [1]: None required

CC1(C)S[C@@H]2[C@H](NC(=O)[C@H](N)c3ccc(O)cc3)C(=O)N2[C@H]1C(=O)O [Amoxicillin]
average amount of methylated DNA [2, 3]: 4.1 ± 8.9 ng/100 ng isolated DNA
average amount of methylated DNA [2, 4]: 12.3 ± 3.2 ng/100 ng isolated DNA
average amount of methylated DNA [2, 5]: 20.4 ± 8.3 ng/100 ng isolated DNA
average amount of methylated DNA [2, 6]: 19.0 ± 2.1 ng/100 ng isolated DNA
average amount of methylated DNA [2, 7]: 20.9 ± 10.4 ng/100 ng isolated DNA
average amount of methylated DNA [2, 8]: 9.8 ± 4.7 ng/100 ng isolated DNA
average amount of methylated DNA [2, 9]: 21.3 ± 3.4 ng/100 ng isolated DNA
average amount of methylated DNA [2, 10]: 26.0 ± 10.2 ng/100 ng isolated DNA
average amount of methylated DNA [2, 11]: 10.2 ± 9.4 ng/100 ng isolated DNA
Absorption [1]: Systemic
Recommended Withdrawal for Broilers [1]: 1 to 4 days

Colistin
average amount of methylated DNA [2, 3]: 26.1 ± 5.0 ng/100 ng isolated DNA
average amount of methylated DNA [2, 4]: 11.7 ± 6.8 ng/100 ng isolated DNA
average amount of methylated DNA [2, 5]: 19.6 ± 5.5 ng/100 ng isolated DNA
average amount of methylated DNA [2, 6]: 24.9 ± 0.8 ng/100 ng isolated DNA
average amount of methylated DNA [2, 7]: 29.5 ± 3.8 ng/100 ng isolated DNA
average amount of methylated DNA [2, 8]: 1.4 ± 7.9 ng/100 ng isolated DNA
average amount of methylated DNA [2, 9]: 19.0 ± 5.4 ng/100 ng isolated DNA
average amount of methylated DNA [2, 10]: 29.1 ± 18.0 ng/100 ng isolated DNA
average amount of methylated DNA [2, 11]: 28.5 ± 16.4 ng/100 ng isolated DNA
size of the reduction in overall DNA methylation (rank among the three antibiotics) [2]: finally

CC[C@H]1OC(=O)C[C@@H](O)[C@H](C)[C@@H](O[C@@H]2O[C@H](C)[C@@H](O[C@H]3C[C@@](C)(O)[C@@H](O)[C@H](C)O3)[C@H](N(C)C)[C@H]2O)[C@@H](CC=O)C[C@@H](C)C(=O)/C=C/C(C)=C/[C@@H]1CO[C@@H]1O[C@H](C)[C@@H](O)[C@@H](OC)[C@H]1OC [Tylosin]
Absorption [1]: Systemic
Recommended Withdrawal for Broilers [1]: 5 days

CN(C)[C@@H]1C(O)=C(C(N)=O)C(=O)[C@@]2(O)C(O)=C3C(=O)c4c(O)cccc4[C@@](C)(O)[C@H]3C[C@@H]12 [Tet, tetracycline hydrochloride]
average amount of methylated DNA [2, 3]: −5.6 ± 2.9 ng/100 ng isolated DNA
average amount of methylated DNA [2, 4]: 12.0 ± 6.9 ng/100 ng isolated DNA
average amount of methylated DNA [2, 5]: 18.2 ± 16.0 ng/100 ng isolated DNA
average amount of methylated DNA [2, 6]: 25.8 ± 22.4 ng/100 ng isolated DNA
average amount of methylated DNA [2, 7]: 0.1 ± 8.1 ng/100 ng isolated DNA
average amount of methylated DNA [2, 8]: −8.6 ± 11.1 ng/100 ng isolated DNA
average amount of methylated DNA [2, 9]: 7.4 ± 9.7 ng/100 ng isolated DNA
average amount of methylated DNA [2, 10]: 6.0 ± 13.2 ng/100 ng isolated DNA
average amount of methylated DNA [2, 11]: 21.7^3 ng/100 ng isolated DNA
size of the reduction in overall DNA methylation (rank among the three antibiotics) [2]: largest
